We go through 2 compounds from US9611265B2, “Tropomyosin-related kinase (TRK) inhibitors” (Genzyme Corporation, priority 2013, dated 2017).

The subject of data set [1] is Monosodium Lodoacetate Induced Osteoarthritis. The data set is described as follows: Monosodium Iodoacetate Induced Osteoarthritis, weight bearing. The format is in vivo, Male Wistar rats. The following applies: for comparison with MIA/LRS at day 35: day 35, p<0.05. The text has this:
Male Wistar rats were acclimated to the testing facility for 5 days. The rats were individually housed in micro-isolator shoe-box polycarbonate cages with cob bedding and water bottles. Dry pelleted food of known composition and nutritional components was provided ad libitum Animals were randomized by treatment type using an online random number generator. Each treatment group was assigned a number, entered into the random number generator, recorded then translated back to the associated treatment. All injections were given in the left leg unless the treatment indicated “Contralateral” in which case the injection was given in the right leg. Both legs were shaved on all animals at the time of the treatment injections to blind the test administrator. The rats were weighed the day prior to injection with monosodium iodoacetate (MIA), the agent used to induce osteoarthritis in the animals. The day of injection, rats from groups 2-8 received a subcutaneous (SC) dose of buprenorphine at least one hour prior to induction. […] Naïve animals were then placed in recovery. All other animals received an injection of MIA. In animals receiving MIA, the hind leg was flexed and an injection of MIA (25 μL) was injected into the intra-articular space using a 27 gauge ½ inch needle. Standard postoperative care was performed (twice daily for 48 hours). On Day 8 the test article was administered as described above. On Days −1, 7, 14, 21, 28, and 35 post-induction, weight bearing was assessed. A weight bearing scale was utilized using a plexiglass chamber to assess the amount of weight distributed in each hind limb. The animals were acclimated to the chamber for at least 5 minutes prior to testing and the weight distribution was recorded 5 times. The animals were terminated at day 36. Both stifles were collected from each animal; the skin was removed from the joint and the patella was removed while leaving as much of the fat pad intact with the joint. The stifle was placed in the appropriate cassette with rolled gauze to secure the stifle in the cassette and then placed into 4% Paraformaldehyde. These samples were examined histologically.

The test system of another data set is PGPS Knee Arthritis. The data set is described as follows: Reactivated Peptidoglycan-Polysaccharide Knee Arthritis. It is filed as in vivo, Male Lewis rats. To be noted: for gait scores and deficiency, first reactivation: days 1-4. The text has this:
Male Lewis rats were acclimated to the testing facility for 7 days. The rats were housed in 5 per cage in shoe-box polycarbonate cages with wire tops, wood chip bedding and suspended food and water bottles. On day −21, the male Lewis rats were randomized into treatment groups by body weight. The rats were anesthetized and injected with peptidoglycan-polysaccharide (PGPS) into the right knee to induce PGPS arthritis. Arthritis was reactivated on days 0 and 14 by an IV tail injection of PGPS. […] Gait analysis was performed by applying ink to the ventral surface of the foot and documenting weight bearing during movement across paper. […] Right knees were removed, trimmed of extraneous tissue, and collected into 10% neutral buffered formalin. After two days in the formalin buffer and three days in 10% formic acid decalcifier, the knees were cut into two approximately equal halves in the frontal plane and processed for paraffin embedding and stained with T.Blue. Histological examinations were subsequently performed for bone resorption, inflammation, pannus and cartilage damage. […] Gait scores were analyzed using a Kruskal-Wallis test (non-parametric ANOVA) with Dunn's multiple comparison post-test. Histopathology scores were analyzed using a Kruskal-Wallis test (non-parametric ANOVA) with Dunn's multiple comparison post-test.

The mark [2] stands for this setting: intra-articular on day -7 (Triamcinolone 0.06 mg; test compound 1 mg).
The mark [3] stands for this setting: Triamcinolone 0.06 mg intra-articular.

Turning to `COc1ccc(COc2ccc(Cn3c(N)nc4cc(-c5cnn(C)c5)cnc43)cc2OC)cc1` [Ex. 3-15, 3-(3-Methoxy-4-((4-methoxybenzyl)oxy)benzyl)-6-(1-methyl-1H-pyrazol-4-yl)-3H-imidazo[4,5-b]pyridin-2-amine], the weight bearing efficacy entry in data set [1] (10 μg Contralateral) is “efficacy at 3 and 4 weeks following administration”; in data set [1] (10 μg Ipsilateral, intra-articular on Day 8), “efficacy was observed at 2 through 4 weeks following administration”; in data set [1] (30 μg Contralateral), “efficacy at only the 3 week timepoint”; in data set [1] (30 μg Ipsilateral, intra-articular on Day 8), “effective throughout the four weeks following administration”; in data set [1] (100 μg Ipsilateral, intra-articular on Day 8), “effective throughout the four weeks following administration”. For the same compound, the “comparison with MIA/LRS at day 35” value in data set [1] (30 μg Ipsilateral) and in data set [1] (100 μg Ipsilateral) was “MIA/LRS was significantly worse” throughout. Moreover, the “systemic pain relief (weight bearing)” value in data set [1] (100 μg Contralateral, 1-4 weeks) is “did not show systemic pain relief at any timepoint”. Also, the body weight results in data set [1] (10-100 μg intra-articular) is given as “No adverse observations”. Also, the “histopathology of the knee joint” value in data set [1] (day 36) is reported as “no adverse changes”. Further, the “reduction of AUC for scores and deficiency, first reactivation” value in the data set on PGPS Knee Arthritis (1 mg intra-articular) is reported as 92-93%. Moreover, the “reduction of AUC for scores and deficiency, second reactivation” value in the data set with PGPS Knee Arthritis (1 mg intra-articular) is recorded as 85-86%. Also, in the data set with PGPS Knee Arthritis (1 mg intra-articular), the “reduction of summed AUC for deficiency” value was determined as 84%. In addition, the “histopathology, reductions in all parameters” value in the data set on PGPS Knee Arthritis (day 18, bone resorption, inflammation, pannus, cartilage damage (Triamcinolone 0.06 mg; test compound 1 mg)) is 49-94%. Further, in the data set with PGPS Knee Arthritis (setting [2]), the knee caliper measurements result was “significantly reduced on day 14”. Moreover, in the data set on PGPS Knee Arthritis (setting [2]), the “reduction in knee caliper AUC” value is “generally unaffected by treatment”. Moreover, the “gait scores and deficiency, first reactivation” value in the data set on PGPS Knee Arthritis (setting [2]) is “significant reductions in gait scores and deficiency throughout the first reactivation”. Moreover, in the data set on PGPS Knee Arthritis (intra-articular on day -7 (Triamcinolone 0.06 mg; test compound 1 mg), days 15-18), the “gait scores and deficiency, second reactivation” value was “Scores were significantly reduced throughout the second reactivation, and reductions in deficiency were significant on days 15, 17, and 18”.
Turning to `C[C@]12C=CC(=O)C=C1CC[C@H]1[C@@H]3C[C@@H](O)[C@](O)(C(=O)CO)[C@@]3(C)C[C@H](O)[C@@]12F` [Triamcinolone, reference compound], in the data set with PGPS Knee Arthritis (setting [3]), the “reduction of gait scores and deficiency AUC, each reactivation calculated separately” value is recorded as 74-99%; the “reduction of gait scores and deficiency AUC, summed” value is 88-92%. For the same compound, in the data set with PGPS Knee Arthritis (setting [2]), the knee caliper measurements result was “significantly reduced on days 2, 4, 16, and 18”; the “reduction in knee caliper AUC” value is given as 53-106%; the “gait scores and deficiency, first reactivation” value is “significantly reduced gait scores and deficiency throughout the first reactivation (days 1-4)”.
